# Earlier results, collected in patent US10918602B2, “Compositions and methods for preparing polymeric films loaded with uniformly distributed drug particles” (New Jersey Institute of Technology, priority 2017, dated 2021).
# Details: literature examples
compound,measurement,value
COc1ccc2c(c1)c(CC(=O)O)c(C)n2C(=O)c1ccc(Cl)cc1 [indomethacin],Diffusional exponent n,0.9
CN1C(=O)CN=C(c2ccccc2)c2cc(Cl)ccc21 [diazepam],Diffusional exponent n,0.82
